From PubChem BioAssay AID1918949 (Molecular Pharmacology Branch, DTP, NCI, 2023)
Several values for one entry are separate records, joined by “and”; a condition that tells them apart may be missing. Equal entries are not always repeated.

Tested on: K24384-001-R-PDC complex spheroid viability
Assay: Anticancer human tumor K24384-001-R-PDC patient-derived pancreatic adenocarcinoma cell line growth inhibition
Conditions: for viability, T/C: stronger effect = lower value
Description: Multicellular complex tumor spheroid response to LSD1 Inhibitor Iadademstat in combination with a variety of drugs and investigational agents in selected tumor cell lines
The current study was undertaken to assess response to LSD1 inhibitors in combination with standard-of-care drugs and investigational agents in solid tumor complex spheroid models as well as in the K-562 leukemia. Complex spheroids include a stromal component modeled by human endothelial cells (HUVEC) and fibroblasts modeled by human mesenchymal stem cells (MSCs). The concentration ranges selected for each drug and investigational agent were based upon clinically achievable concentrations if the clinical Cmax of the agent was known.
Compounds. The drugs and investigational agents used in this study are listed on Table 1. All of the agents used, including staurosporine (NSC755774) and gemcitabine (NSC613327), were obtained from the Developmental Therapeutics Program, NCI. FDA-approved anticancer drugs are available from the NCI at http://dtp.nci.nih.gov/branches/dscb/oncology_drugset_explanation.html. Drugs and investigational agents were >95% pure by proton nuclear magnetic resonance (NMR) and liquid chromatography/mass spectrometry (LC/MS). Stock solutions were prepared at 400x in DMSO, stored at -70 degrees C, and diluted in fresh medium prior to their use. The final concentration of DMSO in cell culture wells never exceeded 0.25% (v/v). The FDA-approved anticancer drug set is available from the Developmental Therapeutics Program at https://dtp.cancer.gov/organization/dscb/obtaining/available_plates.htm. All drugs and investigational agents were tested over a range starting from a high concentration at or near the clinical Cmax and decreasing in half-log increments. If the clinical Cmax for an agent had not been determined, the highest concentration tested was 10 microM.
Cell Lines. The patient-derived cancer cell (PDC) lines: 292921-168-R-J2-PDC, K24384-001-R-PDC, and 521955-158-R2-J5-PDC pancreatic carcinomas, 556581-035-R-J1 ovarian carcinoma, 324938-238-R-J1-PDC, 855422-203-R-J1-PDC and 883617-216-R-J1-PDC urothelial bladder carcinomas, 743489-274-T-PDC renal cell carcinoma, 138582-R-J1 Merkel cell tumor, K60290-347-R-J1 and K57222-313-R-J1-PDC glioblastomas, 653999-131-R-J2-PDC, LG0703-F948-PDC, and 349418-098-R-PDC non-small cell lung carcinomas, 885512-296-R-J2-PDC, 171881-019-R-J1-PDC breast carcinomas and 186277-243-T-J2-PDC and 233499-124-R-J2-PDC colon carcinomas were obtained from the NCI Patient-Derived Models Repository (PDMR, https://pdmr.cancer.gov). The established cell lines NCI/ADR-RES (RRID:CVCL_14520 and OVCAR-5 (RRID:CVCL_1628) ovarian carcinomas, 786-O (RRID:CVCL_1051) and A498 (RRID:CVCL_A498) renal cell carcinoma, NCI-H211 (ATCC, cat. CRL-5824; RRID:CVCL_1529), NCI-H196 (ATCC, cat. CRL-5823, RRID:CVCL_1509), SW 1271 (ATCC, cat. CRL-2177, RRID:CVCL_1716) and NCI-H1876 (ATCC, cat. CRL-5902, RRID:CVCL_1503) small cell lung carcinomas, MDA-MB-231 (RRID:CVCL_0062) and MDA-MB-468 (RRID:CVCL_0419)breast carcinomas (10-12). Pooled donor human umbilical vein endothelial cells (HUVEC, Lonza, cat. CC-2519) and human mesenchymal stem cells (hMSC, Lonza, cat. PT-2501) were purchased from Lonza (Walkersville, MD).
Cell Culture. All cells were maintained in an incubator at 37 degrees C and 5% CO2 with 95% humidity. The PDC lines were cultured according to standard operating procedures established by the NCI PDMR (https://pdmr.cancer.gov). Briefly all PDCs were thawed and cultured in Matrigel-coated flasks prepared with a working solution of 1X Ham's F-12 nutrient mix, without supplementation (Invitrogen, Waltham, MA, cat. 11765054), 100 U/mL penicillin-streptomycin (Invitrogen, cat. 15140122), and 2.5% Matrigel (Corning Inc., Corning, NY, cat. 354248) for the first three passages. […]
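Note: spheroids exposed to agents for seven days before luminescence viability reading.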
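Throughout, for viability, T/C: 100% = DMSO vehicle control viability.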

For `CC1(C)CCC(CN2CCN(c3ccc(C(=O)NS(=O)(=O)c4ccc(NCC5CCOCC5)c([N+](=O)[O-])c4)c(Oc4cnc5[nH]ccc5c4)c3)CC2)=C(c2ccc(Cl)cc2)C1` + NC1CC1c1ccc(-c2cccc(O)c2)cc1, the IC50 (curve of first compound, second compound 0.1 µM) was 3350 nM, the IC50 (curve of first compound, second compound 0.316 µM) was 2600 nM and the IC50 (curve of first compound, second compound 1 µM) was 2680 nM. For the same molecule, the IC50 (curve of first compound, second compound 3.16 µM) was 2690 nM, the IC50 (curve of first compound, second compound 10 µM) was 1950 nM and the viability, T/C (second compound 0.1 µM, first compound 0.0316 µM) was 90.7%. It also gave a viability, T/C (second compound 0.1 µM, first compound 0.1 µM) of 83.9%, a viability, T/C (second compound 0.1 µM, first compound 0.316 µM) of 88.3% and a viability, T/C (second compound 0.1 µM, first compound 1 µM) of 87.6%. It also gave a viability, T/C (second compound 0.1 µM, first compound 3.16 µM) of 52.6%, a viability, T/C (second compound 0.1 µM, first compound 10 µM) of 0.98% and a viability, T/C (second compound 0.316 µM, first compound 0.0316 µM) of 82.7%. It also gave a viability, T/C (second compound 0.316 µM, first compound 0.1 µM) of 76.7%, a viability, T/C (second compound 0.316 µM, first compound 0.316 µM) of 90% and a viability, T/C (second compound 0.316 µM, first compound 1 µM) of 80.4%. For the same molecule, the viability, T/C (second compound 0.316 µM, first compound 3.16 µM) was 43.7%, the viability, T/C (second compound 0.316 µM, first compound 10 µM) was 1.07% and the viability, T/C (second compound 1 µM, first compound 0.0316 µM) was 91.5%. For the same molecule, the viability, T/C (second compound 1 µM, first compound 0.1 µM) was 63.7%, the viability, T/C (second compound 1 µM, first compound 0.316 µM) was 63.8% and the viability, T/C (second compound 1 µM, first compound 1 µM) was 83.3%. It also gave a viability, T/C (second compound 1 µM, first compound 3.16 µM) of 45.7%, a viability, T/C (second compound 1 µM, first compound 10 µM) of 0.94% and a viability, T/C (second compound 3.16 µM, first compound 0.0316 µM) of 83.3%. It also gave a viability, T/C (second compound 3.16 µM, first compound 0.1 µM) of 93.2%, a viability, T/C (second compound 3.16 µM, first compound 0.316 µM) of 78.8% and a viability, T/C (second compound 3.16 µM, first compound 1 µM) of 71%. The viability, T/C (second compound 3.16 µM, first compound 3.16 µM) was 46.9%, the viability, T/C (second compound 3.16 µM, first compound 10 µM) was 0.99% and the viability, T/C (second compound 10 µM, first compound 0.0316 µM) was 86.3%. It also gave a viability, T/C (second compound 10 µM, first compound 0.1 µM) of 81.5%, a viability, T/C (second compound 10 µM, first compound 0.316 µM) of 67.9% and a viability, T/C (second compound 10 µM, first compound 1 µM) of 62.4%. It also gave a viability, T/C (second compound 10 µM, first compound 3.16 µM) of 44.4% and a viability, T/C (second compound 10 µM, first compound 10 µM) of 1%.
`Nc1ccn(C2OC(CO)C(O)C2(F)F)c(=O)n1` (configuration not stated) was tested, and the viability, T/C (compound 0.000949 µM) was 97.6%, the viability, T/C (compound 0.003 µM) was 89% and 86.8% and the viability, T/C (compound 0.00949 µM) was 73% and 73.2%. For the same molecule, the viability, T/C (compound 0.03 µM) was 60.7% and 53.4%, the viability, T/C (compound 0.0949 µM) was 44% and 42.3% and the viability, T/C (compound 0.3 µM) was 33.9% and 28.2%. The IC50 (curve of compound) was 62.5 nM and 45.8 nM.
